Assay results: ChEMBL document CHEMBL3098019, “Structure-based screening for the discovery of new carbonic anhydrase VII inhibitors” (Eur J Med Chem, 2014)
pKi: −log10 of the molar value.

Legend:
[1] = molecular target: Carbonic anhydrase 1 (Homo sapiens, UniProt P00915); assay: Inhibition of human recombinant carbonic anhydrase 1 preincubated for 15 mins by stopped flow CO2 hydration assay
[2] = molecular target: Carbonic anhydrase 2 (Homo sapiens, UniProt P00918); assay: Inhibition of human recombinant carbonic anhydrase 2 preincubated for 15 mins by stopped flow CO2 hydration assay
[3] = molecular target: Carbonic anhydrase 14 (Homo sapiens, UniProt Q9ULX7); assay: Inhibition of human recombinant carbonic anhydrase 14 preincubated for 15 mins by stopped flow CO2 hydration assay
Sequence of Carbonic anhydrase 14 (Q9ULX7 whole entry): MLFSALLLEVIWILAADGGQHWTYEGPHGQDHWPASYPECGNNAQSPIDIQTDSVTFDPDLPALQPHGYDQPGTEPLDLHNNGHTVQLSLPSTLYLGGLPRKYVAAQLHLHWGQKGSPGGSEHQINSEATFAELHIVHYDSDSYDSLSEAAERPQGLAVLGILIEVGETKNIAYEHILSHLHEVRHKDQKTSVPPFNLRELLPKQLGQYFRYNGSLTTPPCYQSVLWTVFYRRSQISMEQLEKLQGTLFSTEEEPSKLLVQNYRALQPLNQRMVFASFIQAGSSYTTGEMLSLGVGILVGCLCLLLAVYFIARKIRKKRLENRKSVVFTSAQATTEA

[4] = molecular target: Carbonic anhydrase 9 (Homo sapiens, UniProt Q16790)
Description: Inhibition of human catalytic domain of carbonic anhydrase 9 preincubated for 15 mins by stopped flow CO2 hydration assay

Sequence of Carbonic anhydrase 1 (P00915 whole entry): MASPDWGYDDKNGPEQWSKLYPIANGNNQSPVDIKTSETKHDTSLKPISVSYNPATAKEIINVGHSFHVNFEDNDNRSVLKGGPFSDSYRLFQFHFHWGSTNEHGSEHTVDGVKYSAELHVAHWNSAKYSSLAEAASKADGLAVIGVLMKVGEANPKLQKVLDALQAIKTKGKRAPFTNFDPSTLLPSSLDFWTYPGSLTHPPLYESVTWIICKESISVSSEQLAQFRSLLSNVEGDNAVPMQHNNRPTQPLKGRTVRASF

SMILES	pKi [1]	pKi [2]	pKi [3]	pKi [4]
NS(=O)(=O)Cc1ccc(NC(=O)C2CC=CCC2)cc1 (configuration not stated)	8.05	7.14	8.12	7.27
NS(=O)(=O)Cc1ccc(NS(=O)(=O)c2ccc(Br)cc2Cl)cc1	8.07	8.20	7.71	
